{
  "source": "patent US20250009697A1",
  "about": "“COMPOSITION FOR INCREASING AMOUNT OF FOOD INGESTED AND/OR IMPROVING ANOREXIA, AND COMPOSITION FOR ACTIVATING TRANSIENT RECEPTOR POTENTIAL ANKYRIN 1” (HOUSE FOODS GROUP INC., priority 2021, published 2025)",
  "key": {"Human TRPV1 (hTRPV1)": {"target": "T1, Human TRPV1 (hTRPV1) (Homo sapiens, UniProt Q8NER1)", "T1 construct": "expressed in transfected cells", "T1 sequence (Q8NER1 whole entry)": "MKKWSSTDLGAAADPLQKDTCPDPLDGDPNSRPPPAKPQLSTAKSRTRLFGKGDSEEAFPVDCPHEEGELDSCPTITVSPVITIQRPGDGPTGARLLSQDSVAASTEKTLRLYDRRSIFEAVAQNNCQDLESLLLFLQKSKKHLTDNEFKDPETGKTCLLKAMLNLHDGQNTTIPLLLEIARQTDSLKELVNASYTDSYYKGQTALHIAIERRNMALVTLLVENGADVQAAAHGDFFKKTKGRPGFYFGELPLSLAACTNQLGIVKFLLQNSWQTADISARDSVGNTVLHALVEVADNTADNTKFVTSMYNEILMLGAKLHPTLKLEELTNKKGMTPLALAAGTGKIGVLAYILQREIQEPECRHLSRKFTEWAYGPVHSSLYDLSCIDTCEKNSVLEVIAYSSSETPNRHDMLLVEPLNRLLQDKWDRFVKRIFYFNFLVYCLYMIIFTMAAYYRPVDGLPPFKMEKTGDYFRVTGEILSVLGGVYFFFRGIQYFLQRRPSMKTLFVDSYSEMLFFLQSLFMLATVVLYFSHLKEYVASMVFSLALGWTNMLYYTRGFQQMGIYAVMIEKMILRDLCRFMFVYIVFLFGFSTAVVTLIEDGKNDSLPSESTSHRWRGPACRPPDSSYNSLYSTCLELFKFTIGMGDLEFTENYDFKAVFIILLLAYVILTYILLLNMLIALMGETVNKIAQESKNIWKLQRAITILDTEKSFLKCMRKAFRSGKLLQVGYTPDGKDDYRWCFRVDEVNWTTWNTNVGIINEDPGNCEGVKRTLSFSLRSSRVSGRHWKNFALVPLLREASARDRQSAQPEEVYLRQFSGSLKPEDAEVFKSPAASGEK", "assay": "TRPA1 Activation Test 2: intracellular Ca2+ imaging assay 2-2, hTRPV1 stably expressing cell line", "assay_type": "cell-based", "conditions": "for TRPV1 activation rate: Table 9", "method": "(§1) DNAs encoding genes described in the following Table 2 were inserted into pcDNA 5/TO vector (Invitrogen) to prepare various expression vectors.\n(§2) These expression vectors were transfected into T-REx™_293 cells (Invitrogen) by a conventional method using Lipofectamine LTX (Invitrogen). Then, various transfectants were cultured and cloned by a conventional method using Dulbecco's Modified Eagle Medium (DMEM, Nacalai Tesque Inc.), containing 10% fetal bovine serum (FBS, Cytiva), […] of hygromycin B, and 5 μg/mL of blasticidin S, as a drug selection medium to obtain a hTRPA1 stably expressing cell line, a hTRPV1 stably expressing cell line, and a hTRPM8 stably expressing cell line.\nA hTRPA1 stably expressing cell line in which expression of hTRPA1 had been induced in advance by a conventional method was prepared in a 96 well clear bottom plate, and the hTRPA1 activating action of rhein (produced by Tokyo Chemical Industry Co., Ltd.) was tested. Specifically, after each well was washed with PBS, 50 μL of an assay buffer (Hanks' balanced salt solution containing no calcium ion or magnesium ion that contained 1 mM of CaCl2 dihydrate, 20 mM of HEPES, and 0.1% BSA) containing calcium fluorescent indicator Calbryte™ 520 AM (produced by AAT Bioquest) in a final concentration of 4 μM was added, followed by incubating at 33° C. for 45 minutes. After washing with the assay buffer, 100 μL of the assay buffer was added to each well. […] Then, a well in which an assay buffer containing ionomycin (having a final concentration of 10 μM after the addition) instead of the test samples was added was also prepared as a reference for fluorescence intensity.\n(§3) The measurement was continued from the start of the measurement up to 120 seconds, and the TRPA1 activation ability of the test samples was calculated in accordance with the following formula.\n(§4) Activation rate (%)=(Fmax[s]−F0)/(Fmax[i]−F0)×100 • Fmax[s]: The maximum value of the fluorescence intensity when the test sample or positive control was added • F0: The average value of the fluorescence intensity for 20 seconds after the start of the measurement (base line) • Fmax[i]: The maximum value of the fluorescence intensity when ionomycin was added\nThe TRPA1 activation ability of each test sample was measured in the same manner as in the above (2) except the test was conducted with A-967079 (1 μM), which is a TRPA1-specific antagonist, or without A-967079. In addition, intracellular Ca^2+ imaging assay was conducted in the same manner as in the above (2) except that a hTRPV1 stably expressing cell line, a hTRPM8 stably expressing cell line, or a Mock cell was used instead of the hTRPA1 stably expressing cell line. […]"}, "[1]": {"assay": "Anorexia Improving Test 3: cumulative amounts of food ingested of mice, rhein with or without A-967079", "assay_type": "in vivo", "conditions": "oral; for Cumulative amounts of food ingested of mice: rhein 100 μmol/kg body weight, A-967079 10 μmol/kg body weight", "method": "Male ICR mice were housed in individual cages in which ALPHA-dri (Shepherd Specialty Papers) was laid, and were acclimatized and raised for at least one week or more while a powder feed (CE-2, CLEA Japan, Inc.) was given to the mice by using a powder feeder for mice (SN-950, Shinano Manufacturing Co., Ltd.). Then, for several days before the experiment, handling and oral administration training using a feeding needle (FG4202, Fuchigami Kikai Co., Ltd.) were conducted every day. To 9 week-old mice under ad libitum feeding conditions, a carrier solution (containing 2% of dimethyl sulfoxide and 98% of a 0.5% methyl cellulose solution in volume ratio) or a rhein solution (obtained by dissolving 8.53 mg of rhein in 1 mL of the carrier solution) was orally administered from 9:20 a.m. (10 mL/kg body weight). The dosage of rhein was 300 μmol/kg body weight in terms of molar concentration. Then, a feeder the mass of which had been measured in advance was set in the cage at 9:30 a.m. The masses of the feeder and the feed spilled in the cage 0.5, 1, 2, and 3 hours after the start of the feeding experiment were measured, and the ingested mass (g) at each time was measured (n=6). The ingested mass (g) of each mouse was measured in the same manner as in anorexia improving test 2 (the above item 5) except that 10 mL/kg body weight of a carrier solution, a rhein solution (100 μmol/kg body weight), an A-967079 solution (10 μmol/kg body weight), or a mixed solution of A-967079 and rhein (in 10 μmol/kg body weight and 100 μmol/kg body weight, respectively) was orally administered to the mouse. Results obtained by calculating the cumulative amounts of food ingested and conducting a multiple comparison (multiple t-test) by the Dunn-Bonferroni method are shown in Table 12."}, "Human TRPA1 (hTRPA1)": {"target": "T2, Human TRPA1 (hTRPA1) (Homo sapiens, UniProt O75762)", "T2 construct": "expressed in transfected cells", "T2 sequence (O75762 whole entry)": "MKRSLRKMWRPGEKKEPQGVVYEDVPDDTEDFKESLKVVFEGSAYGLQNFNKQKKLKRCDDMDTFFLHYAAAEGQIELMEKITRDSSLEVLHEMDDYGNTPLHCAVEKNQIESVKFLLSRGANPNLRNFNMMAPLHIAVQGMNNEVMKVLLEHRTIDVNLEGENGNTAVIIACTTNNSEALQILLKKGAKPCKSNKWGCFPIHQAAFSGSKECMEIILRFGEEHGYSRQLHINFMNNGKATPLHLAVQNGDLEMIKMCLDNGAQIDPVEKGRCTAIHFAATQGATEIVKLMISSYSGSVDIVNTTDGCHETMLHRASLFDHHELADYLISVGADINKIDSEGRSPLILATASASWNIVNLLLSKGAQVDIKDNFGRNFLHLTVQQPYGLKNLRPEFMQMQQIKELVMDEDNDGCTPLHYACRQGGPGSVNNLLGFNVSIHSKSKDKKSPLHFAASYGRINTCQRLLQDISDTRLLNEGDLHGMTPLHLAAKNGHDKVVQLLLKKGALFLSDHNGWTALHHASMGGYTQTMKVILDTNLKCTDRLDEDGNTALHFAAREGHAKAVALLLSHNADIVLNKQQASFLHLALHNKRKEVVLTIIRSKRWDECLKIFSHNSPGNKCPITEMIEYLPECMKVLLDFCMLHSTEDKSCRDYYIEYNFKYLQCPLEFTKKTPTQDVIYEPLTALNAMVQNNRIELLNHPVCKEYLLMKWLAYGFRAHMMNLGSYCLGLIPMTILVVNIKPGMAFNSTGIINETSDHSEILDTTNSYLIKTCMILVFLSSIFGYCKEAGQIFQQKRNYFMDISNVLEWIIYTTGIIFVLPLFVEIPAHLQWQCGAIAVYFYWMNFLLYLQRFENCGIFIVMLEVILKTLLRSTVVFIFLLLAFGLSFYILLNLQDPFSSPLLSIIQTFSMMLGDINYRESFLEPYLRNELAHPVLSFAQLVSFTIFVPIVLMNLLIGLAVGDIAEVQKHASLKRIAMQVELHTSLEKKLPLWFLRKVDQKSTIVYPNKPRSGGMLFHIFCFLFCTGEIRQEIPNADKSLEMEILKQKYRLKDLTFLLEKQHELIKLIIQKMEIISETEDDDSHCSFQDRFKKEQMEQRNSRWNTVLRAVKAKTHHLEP", "assay": "TRPA1 Activation Test 2: intracellular Ca2+ imaging assay 2-1 to 2-3, hTRPA1 stably expressing cell line", "assay_type": "cell-based", "conditions": "for TRPA1 activation rate: Table 7; for TRPA1 activation rate, With antagonist: A-967079 1 μM; for TRPA1 activation rate, With antagonist / TRPA1 activation rate, Without antagonist: Table 8", "method": "as §1, §2\nA hTRPA1 stably expressing cell line in which expression of hTRPA1 had been induced in advance by a conventional method was prepared in a 96 well clear bottom plate, and the hTRPA1 activating action of rhein (produced by Tokyo Chemical Industry Co., Ltd.) was tested. Specifically, after each well was washed with PBS, 50 μL of an assay buffer (Hanks' balanced salt solution containing no calcium ion or magnesium ion that contained 1 mM of CaCl2 dihydrate, 20 mM of HEPES, and 0.1% BSA) containing calcium fluorescent indicator Calbryte™ 520 AM (produced by AAT Bioquest) in a final concentration of 4 μM was added, followed by incubating at 33° C. for 45 minutes. After washing with the assay buffer, 100 μL of the assay buffer was added to each well. This plate was set to FlexStation 3 (Molecular Devices, LLC), and a fluorescence intensity (excitation wavelength 490 nm, fluorescence wavelength 525 nm) at 31° C. was measured every two seconds, and 30 seconds after the start of the measurement, 100 μL of an assay buffer containing a test sample (allyl isothiocyanate (AITC) of positive control or rhein) which was prepared to have a certain final concentration or DMSO was added. Then, a well in which an assay buffer containing ionomycin (having a final concentration of 10 μM after the addition) instead of the test samples was added was also prepared as a reference for fluorescence intensity.\nas §3, §4\nThe TRPA1 activation ability of each test sample was measured in the same manner as in the above (2) except the test was conducted with A-967079 (1 μM), which is a TRPA1-specific antagonist, or without A-967079. In addition, intracellular Ca^2+ imaging assay was conducted in the same manner as in the above (2) except that a hTRPV1 stably expressing cell line, a hTRPM8 stably expressing cell line, or a Mock cell was used instead of the hTRPA1 stably expressing cell line. Note that capsaicin was used as positive control for the hTRPV1 stably expressing cell line, and icilin was used as positive control for the hTRPM8 stably expressing cell line.\nA TRPA1 activation ability was measured in the same manner as in the above (2) by using, as a test sample, rhein or compounds described in the following Table 10, which had anthraquinone structures similar to rhein, at a concentration of 200 μM of the test sample."}},
  "data": [
    {"compound": "O=C(O)c1cc(O)c2c(c1)C(=O)c1cccc(O)c1C2=O", "note": "[Rhein, rhein]", "values": [
      {"measurement": "TRPV1 activation (in words)", "setting": "Human TRPV1 (hTRPV1); hTRPV1 stably expressing cell line", "result": "not activated"},
      {"measurement": "TRPV1 activation rate", "setting": "Human TRPV1 (hTRPV1); test sample 100 μM", "result": "2.40 ± 0.0395", "unit": "%"},
      {"measurement": "TRPV1 activation rate", "setting": "Human TRPV1 (hTRPV1); test sample 200 μM", "result": "5.49 ± 0.0830", "unit": "%"},
      {"measurement": "Cumulative amounts of food ingested of mice", "setting": "[1]; 0.5 hour after the administration", "result": "0.21 ± 0.033", "unit": "g"},
      {"measurement": "Cumulative amounts of food ingested of mice", "setting": "[1]; 1 hour after the administration", "result": "0.25 ± 0.027", "unit": "g"},
      {"measurement": "Cumulative amounts of food ingested of mice", "setting": "[1]; 2 hours after the administration", "result": "0.42 ± 0.020", "unit": "g"},
      {"measurement": "Cumulative amounts of food ingested of mice", "setting": "[1]; 3 hours after the administration", "result": "0.49 ± 0.035", "unit": "g"},
      {"measurement": "Significant increase in the cumulative amounts of food ingested where A-967079 was administered (in words)", "setting": "[1]; rhein 100 μmol/kg with A-967079 10 μmol/kg", "result": "not observed"},
      {"measurement": "TRPA1 activating action with TRPA1-specific antagonist (in words)", "setting": "Human TRPA1 (hTRPA1); A-967079", "result": "inhibited by the TRPA1-specific antagonist"},
      {"measurement": "TRPA1 activating action (in words)", "setting": "Human TRPA1 (hTRPA1); hTRPA1 stably expressing cell line", "result": "activated TRPA1 in concentration dependent manner"},
      {"measurement": "TRPA1 activation rate", "setting": "Human TRPA1 (hTRPA1); test sample 1 μM", "result": "0.57 ± 0.0414", "unit": "%"},
      {"measurement": "TRPA1 activation rate", "setting": "Human TRPA1 (hTRPA1); test sample 10 μM", "result": "19.1 ± 1.00", "unit": "%"},
      {"measurement": "TRPA1 activation rate", "setting": "Human TRPA1 (hTRPA1); test sample 25 μM", "result": "41.1 ± 1.51", "unit": "%"},
      {"measurement": "TRPA1 activation rate", "setting": "Human TRPA1 (hTRPA1); test sample 50 μM", "result": "66.4 ± 1.45", "unit": "%"},
      {"measurement": "TRPA1 activation rate", "setting": "Human TRPA1 (hTRPA1); test sample 75 μM", "result": "69.7 ± 1.25", "unit": "%"},
      {"measurement": "TRPA1 activation rate, With antagonist", "setting": "Human TRPA1 (hTRPA1); test sample 100 μM", "result": "3.26 ± 0.102", "unit": "%"},
      {"measurement": "TRPA1 activation rate", "setting": "Human TRPA1 (hTRPA1); test sample 100 μM", "result": "75.5 ± 1.19", "unit": "%"},
      {"measurement": "TRPA1 activation rate, Without antagonist", "setting": "Human TRPA1 (hTRPA1); test sample 100 μM", "result": "79.4 ± 4.08", "unit": "%"},
      {"measurement": "TRPA1 activation rate, With antagonist", "setting": "Human TRPA1 (hTRPA1); test sample 200 μM", "result": "8.40 ± 0.238", "unit": "%"},
      {"measurement": "TRPA1 activation rate", "setting": "Human TRPA1 (hTRPA1); test sample 200 μM", "result": "85.7 ± 1.62", "unit": "%"},
      {"measurement": "TRPA1 activation rate, Without antagonist", "setting": "Human TRPA1 (hTRPA1); test sample 200 μM", "result": "82.1 ± 0.918", "unit": "%"},
      {"measurement": "TRPA1 activation rates", "setting": "Human TRPA1 (hTRPA1); test sample 200 μM, Table 10", "result": "85.7 ± 1.62", "unit": "%"}
    ]}
  ]
}
